Converted amounts (≈) assume the structure as drawn.
Assays:
Toxicity (lethal dose) = format: in vivo
Staphylococcus aureus = experiment: Minimum inhibitory concentration in vitro; format: cell-based
Description: (§1) Zum Nachweis der antimikrobiellen Wirksamkeit der erwähnten Produkte wurde das (6R,7R)-7-[2-(2-Amino-5-thiazolyl)-2-[(Z)-methoxyimino]acetamido]-3-[[(2,5-dihydro-2-methyl-5-oxo-as-triazin-3-yl)thio]methyl]-8-oxo-5-thia-1-azabicyclo[4.2.0]oct-2-en-2-carbonsäure-Natriumsalz auf seine Aktivität in vitro gegen verschiedene Krankheitserreger getestet. Nachstehend sind die entsprechenden Mindesthemmkonzentrationen (MIC; µg/ml) zusammengestellt: […]

Enterobacter cloacae = experiment: Minimum inhibitory concentration in vitro; format: cell-based; settings: ß-Lactamase bildende Stämme
Description: as §1

[1] = test system: Pseudomonas aeruginosa Stamm 2; experiment: Minimum inhibitory concentration in vitro; format: cell-based; settings: STAMM2, ß-Lactamase bildende Stämme
Description: as §1

Escherichia coli = experiment: Minimum inhibitory concentration in vitro; format: cell-based; settings: ß-Lactamase bildende Stämme
Description: as §1

Neisseria gonorrhoeae = experiment: Minimum inhibitory concentration in vitro; format: cell-based
Description: as §1

Serratia marcescens = experiment: Minimum inhibitory concentration in vitro; format: cell-based; settings: ß-Lactamase bildende Stämme
Description: as §1

Haemophilus influenzae = experiment: Minimum inhibitory concentration in vitro; format: cell-based
Description: as §1

Proteus mirabilis = experiment: Minimum inhibitory concentration in vitro; format: cell-based; settings: ß-Lactamase bildende Stämme
Description: as §1

[2] = test system: Pseudomonas aeruginosa Stamm 1; experiment: Minimum inhibitory concentration in vitro; format: cell-based; settings: STAMM1, ß-Lactamase bildende Stämme
Description: as §1

Proteus vulgaris = experiment: Minimum inhibitory concentration in vitro; format: cell-based; settings: ß-Lactamase bildende Stämme
Description: as §1

CO/N=C(\C(=O)N[C@@H]1C(=O)N2C(C(=O)O)=C(CSc3nc(=O)cnn3C)CS[C@H]12)c1csc(N)n1 [(6R,7R)-7-[2-(2-Amino-4-thiazolyl)-2-[(Z)-methoxyimino]ace-tamido]-3-[[(2,5-dihydro-2-methyl-5-oxo-as-triazin-3-yl)thio]methyl]-8-oxo-5-thia-1-azabicyclo[4.2.0]oct-2-en-2-carbonsäure-Natriumsalz]
LD100 (Toxicity (lethal dose); i.v.): 1000 mg/kg
LD100 (Toxicity (lethal dose); p.o.): >5000 mg/kg
LD100 (Toxicity (lethal dose); s.c.): >5000 mg/kg
MIC (Staphylococcus aureus): 2.5 µg/mL (≈ 4.64 µM)
MIC (Enterobacter cloacae): 2.5 µg/mL (≈ 4.64 µM)
MIC [1]: 40 µg/mL (≈ 74.3 µM)
MIC (Escherichia coli): 0.04 µg/mL (≈ 0.0743 µM)
MIC (Neisseria gonorrhoeae): 0.02 µg/mL (≈ 0.0371 µM)
MIC (Serratia marcescens): 0.16 µg/mL (≈ 0.297 µM)
MIC (Haemophilus influenzae): 0.02 µg/mL (≈ 0.0371 µM)
MIC (Proteus mirabilis): 0.04 µg/mL (≈ 0.0743 µM)
MIC [2]: 40 µg/mL (≈ 74.3 µM)
MIC (Proteus vulgaris): 0.02 µg/mL (≈ 0.0371 µM)
